From patent publication US20250171462A1 (NICO Therapeutics, Inc., priority 2022, published 2025)
pIC50: −log10 of the molar value. Read-outs that look alike come from different tables or passages of the source.

Biological target: T1, full-length SARM1 (FL-SARM1) (Homo sapiens, UniProt Q6SZW1)
T1 sequence (Q6SZW1 28-724): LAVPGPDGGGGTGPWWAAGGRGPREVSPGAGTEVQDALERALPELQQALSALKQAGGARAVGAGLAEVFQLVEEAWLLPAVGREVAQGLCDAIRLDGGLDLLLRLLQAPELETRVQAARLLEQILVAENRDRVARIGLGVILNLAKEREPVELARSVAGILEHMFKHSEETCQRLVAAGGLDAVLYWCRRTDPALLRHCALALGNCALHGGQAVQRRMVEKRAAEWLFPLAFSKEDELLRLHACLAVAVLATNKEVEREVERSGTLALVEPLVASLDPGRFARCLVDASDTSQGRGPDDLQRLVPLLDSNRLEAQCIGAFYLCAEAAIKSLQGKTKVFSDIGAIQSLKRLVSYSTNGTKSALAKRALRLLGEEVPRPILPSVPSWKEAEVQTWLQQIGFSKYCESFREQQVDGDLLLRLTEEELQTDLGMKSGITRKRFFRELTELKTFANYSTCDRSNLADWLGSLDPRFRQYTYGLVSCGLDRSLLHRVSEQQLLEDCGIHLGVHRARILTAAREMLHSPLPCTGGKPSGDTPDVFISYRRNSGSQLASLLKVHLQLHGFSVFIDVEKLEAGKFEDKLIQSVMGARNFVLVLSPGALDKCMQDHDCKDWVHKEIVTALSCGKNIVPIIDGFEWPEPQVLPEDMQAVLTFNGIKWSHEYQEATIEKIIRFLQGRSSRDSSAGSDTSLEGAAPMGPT
Experiment: FL-SARM1 cellular lysate assay (NAD/NADH-Glo detection of remaining NAD+, NMN-activated)
Details: for IC50: Activity (μM) (IC50)

[1] = Activity (IC50 class), 11 point curve
[2] = read-out: Activity (IC50 class), 11 point curve

SMILES: Cc1ccc(NC(=O)N2CC3CC3(c3ccccc3)C2)cc1-c1ccccn1 (stereo not drawn) [Example 94, N-(4-methyl-3-pyridin-2-ylphenyl)-1-phenyl-3-azabicyclo[3.1.0]hexane-3-carboxamide]
- pIC50 [1]: < 5.00
- IC50 (11 point curve): 15 µM

SMILES: Cc1ccc(NC(=O)N2C3CCCC2C3)cc1-c1ncccc1C#N [Example 33, N-(3-(3-cyanopyridin-2-yl)-4-methylphenyl)-6-azabicyclo[3.1.1]heptane-6-carboxamide]
- pIC50 [1]: 5.00 to 6.00
- IC50 (11 point curve): 1.2 µM

SMILES: Cc1ccc(NC(=O)N2[C@@H]3C[C@@H](C)C[C@H]2C3)cc1-c1ccccn1 [Example 11, cis-3-Methyl-N-(4-methyl-3-(pyridin-2-yl)phenyl)-6-azabicyclo[3.1.1]heptane-6-carboxamide]
- IC50 (11 point curve): 0.01 µM
- pIC50 [2]: 6.00 to 10.00

SMILES: COC(=O)[C@@H]1CC[C@@H]2C[C@H]1N2C(=O)Nc1ccc(C)c(-c2ccccn2)c1 (racemic) [Example 70, cis-methyl-6-((4-methyl-3-(pyridin-2-yl)phenyl)carbamoyl)-6-azabicyclo[3.1.1]heptane-2-carboxylate]
- pIC50 [1]: 5.00 to 6.00
- IC50 (11 point curve): 1.9 µM

SMILES: CO[C@@H]1CCCCN(C(=O)Nc2ccc(C(F)(F)F)c(-c3ncc(F)cn3)c2)C1 [Example 308, (R)-N-(3-(5-fluoropyrimidin-2-yl)-4-(trifluoromethyl)phenyl)-3-methoxyazepane-1-carboxamide]
- pIC50 [1]: < 5.00
- IC50 (11 point curve): 32 µM

SMILES: CC[C@H]1C[C@@H]1C(=O)Nc1ccc(C)c(-c2ccccn2)c1 (racemic) [Example 108, trans-2-ethyl-N-(4-methyl-3-pyridin-2-ylphenyl)cyclopropane-1-carboxamide]
- pIC50 [1]: 5.00 to 6.00
- IC50 (11 point curve): 1.1 µM

SMILES: COc1nccnc1-c1cc(NC(=O)N2[C@@H]3C[C@@H](C)C[C@H]2C3)ccc1C [Example 219, cis-N-[3-(3-methoxypyrazin-2-yl)-4-methylphenyl]-3-methyl-6-azabicyclo[3.1.1]heptane-6-carboxamide]
- pIC50 [1]: 5.00 to 6.00
- IC50 (11 point curve): 1 µM

SMILES: Cc1ccc(NC(=O)N2[C@@H]3C[C@@H](C)C[C@H]2C3)cc1-c1cncc(C(F)(F)F)n1 [Example 228, cis-3-methyl-N-[4-methyl-3-[6-(trifluoromethyl)pyrazin-2-yl]phenyl]-6-azabicyclo[3.1.1]heptane-6-carboxamide]
- IC50 (11 point curve): 0.09 µM
- pIC50 [2]: 6.00 to 10.00

SMILES: Cc1ccc(NC(=O)N2CCc3ccccc3C2)cc1-c1ccccn1 [Example 101, N-(4-methyl-3-pyridin-2-ylphenyl)-3,4-dihydro-1H-isoquinoline-2-carboxamide]
- pIC50 [1]: 5.00 to 6.00
- IC50 (11 point curve): 10 µM

SMILES: Cc1ccc(NC(=O)C2CCC(C)CCN2c2ccccn2)cc1-c1ncccn1 (mixture of isomers) [Example 259, 5-methyl-N-(4-methyl-3-(pyrimidin-2-yl)phenyl)-1-(pyridin-2-yl)azepane-2-carboxamide]
- pIC50 [1]: 5.00 to 6.00
- IC50 (11 point curve): 5.8 µM

SMILES: Cc1ccc(NC(=O)N2C3CCCC2C3)cc1-c1nccc(C(F)(F)F)n1 [Example 68, N-(4-methyl-3-(4-(trifluoromethyl)pyrimidin-2-yl)phenyl)-6-azabicyclo[3.1.1]heptane-6-carboxamide]
- pIC50 [1]: 5.00 to 6.00
- IC50 (11 point curve): 4.7 µM

SMILES: Cc1ccc(NC(=O)C2CCCC2C)cc1-c1ccccn1 (stereo not drawn) [Example 114, 2-methyl-N-(4-methyl-3-pyridin-2-ylphenyl)cyclopentane-1-carboxamide]
- IC50 (11 point curve): 0.7 µM
- pIC50 [2]: 6.00 to 10.00

SMILES: Cc1c(-c2ncc(F)cn2)cc(NC(=O)N2C3CCCC2C3)c(F)c1F [Example 250, N-[2,3-difluoro-5-(5-fluoropyrimidin-2-yl)-4-methylphenyl]-6-azabicyclo[3.1.1]heptane-6-carboxamide]
- pIC50 [1]: 5.00 to 6.00
- IC50 (11 point curve): 1.5 µM

SMILES: Cc1ccc(NC(=O)[C@H]2C[C@@H]2c2ccccc2)cc1-c1ncc(F)cn1 (racemic) [Example 257, trans-N-(3-(5-fluoropyrimidin-2-yl)-4-methylphenyl)-2-phenylcyclopropane-1-carboxamide]
- pIC50 [1]: < 5.00
- IC50 (11 point curve): 30 µM

SMILES: Cc1ccc(NC(=O)N2C3C[C@@H](C)C[C@H]2C3)cc1-c1cncc(F)n1 [Example 231, cis-N-[3-(6-fluoropyrazin-2-yl)-4-methylphenyl]-3-methyl-6-azabicyclo[3.1.1]heptane-6-carboxamide]
- IC50 (11 point curve): 0.08 µM
- pIC50 [2]: 6.00 to 10.00

SMILES: Cc1ccc(NC(=O)[C@@H]2C[C@H]3C[C@H]32)cc1-c1ccccn1 (racemic) [Example 116, trans-N-(4-methyl-3-pyridin-2-ylphenyl)bicyclo[2.1.0]pentane-2-carboxamide]
- pIC50 [1]: 5.00 to 6.00
- IC50 (11 point curve): 7.4 µM

SMILES: Cc1ccc(NC(=O)[C@@H]2CC2(F)F)cc1-c1ccc(C2CC2)cn1 [Example 149, (1S)-N-[3-(5-cyclopropylpyridin-2-yl)-4-methylphenyl]-2,2-difluorocyclopropane-1-carboxamide]
- pIC50 [1]: < 5.00
- IC50 (11 point curve): 17 µM

SMILES: O=C(Nc1ccc(C(F)(F)F)c(-c2ncc(F)cn2)c1)C1C2CCC1CC2 (stereo not drawn) [Example 303, N-(3-(5-fluoropyrimidin-2-yl)-4-(trifluoromethyl)phenyl) bicyclo[2.2.1]heptane-e-7-carboxamide]
- IC50 (11 point curve): 0.5 µM
- pIC50 [2]: 6.00 to 10.00

SMILES: Cc1ccc(NC(=O)N2C3CCCC2C3)cc1-c1cc(C#N)cnn1 [Example 63, N-(3-(5-cyanopyridazin-3-yl)-4-methylphenyl)-6-azabicyclo[3.1.1]heptane-6-carboxamide]
- IC50 (11 point curve): 0.7 µM
- pIC50 [2]: 6.00 to 10.00

SMILES: Cc1ccc(NC(=O)N2C3CCCC2C3)cc1-c1ncccn1 [Example 52, N-(4-methyl-3-(pyrimidin-2-yl)phenyl)-6-azabicyclo[3.1.1]heptane-6-carboxamide]
- IC50 (11 point curve): 0.5 µM
- pIC50 [2]: 6.00 to 10.00

SMILES: Cc1ccc(NC(=O)N2C3C[C@H](OC(F)F)C[C@H]2C3)cc1-c1ccccn1 [Example 29, trans-3-(difluoromethoxy)-N-(4-methyl-3-(pyridin-2-yl)phenyl)-6-azabicyclo[3.1.1]heptane-6-carboxamide]
- IC50 (11 point curve): 0.06 µM
- pIC50 [2]: 6.00 to 10.00

SMILES: Cc1ccc(NC(=O)N2[C@@H]3C[C@@H](C)C[C@H]2C3)cc1-c1ncccn1 [Example 223, cis-3-methyl-N-(4-methyl-3-pyrimidin-2-ylphenyl)-6-azabicyclo[3.1.1]heptane-6-carboxamide]
- IC50 (11 point curve): 0.04 µM
- pIC50 [2]: 6.00 to 10.00

SMILES: Cc1ccc(NC(=O)[C@H]2C[C@@H](C(F)(F)F)CN2c2ncn(C)n2)cc1-c1ncc(F)cn1 [Example 175, (2R,4R)—N-(3-(5-fluoropyrimidin-2-yl)-4-methylphenyl)-1-(1-methyl-1H-1,2,4-triazol-3-yl)-4-(trifluoromethyl)pyrrolidine-2-carboxamide]
- pIC50 [1]: 5.00 to 6.00
- IC50 (11 point curve): 2.4 µM

SMILES: O=C(Nc1ccc(C(F)(F)F)c(-c2ncc(F)cn2)c1)[C@H]1C[C@H]2C[C@H]2N1c1ccccn1 [Example 301, (1R,3R,5R)-N-(3-(5-fluoropyrimidin-2-yl)-4-(trifluoromethyl)phenyl)-2-(pyridin-2-yl)-2-azabicyclo[3.1.0]hexane-3-carboxamide]
- pIC50 [1]: 5.00 to 6.00
- IC50 (11 point curve): 2.1 µM

SMILES: Cc1c(Cl)cc(NC(=O)N2C3CCCC2C3)cc1-c1ccccn1 [Example 77, N-(3-chloro-4-methyl-5-(pyridin-2-yl)phenyl)-6-azabicyclo[3.1.1]heptane-6-carboxamide]
- IC50 (11 point curve): 0.8 µM
- pIC50 [2]: 6.00 to 10.00

SMILES: Cc1ccc(NC(=O)N2C3C[C@@H](C)C[C@@H]2C3)cc1-c1ncc(F)cn1 [Example 50, trans-N-(3-(5-fluoropyrimidin-2-yl)-4-methylphenyl)-3-methyl-6-azabicyclo[3.1.1]heptane-6-carboxamide]
- IC50 (11 point curve): 0.02 µM
- pIC50 [2]: 6.00 to 10.00

SMILES: Cc1ccc(NC(=O)[C@@H]2[C@@H]3CC[C@H]2N(CC(F)(F)F)C3)cc1-c1ccccn1 (single isomer, unassigned) [Example 105, trans-N-(4-methyl-3-(pyridin-2-yl)phenyl)-2-(2,2,2-trifluoroethyl)-2-azabicyclo[2.2.1]heptane-7-carboxamide]
- pIC50 [1]: < 5.00
- IC50 (11 point curve): 17 µM

SMILES: Cc1ccc(NC(=O)[C@H]2CC[C@H]3C[C@H]3N2c2ncccn2)cc1-c1ncc(F)cn1 [Example 292, (1R,3R,6S)-N-[3-(5-fluoropyrimidin-2-yl)-4-methylphenyl]-2-pyrimidin-2-yl-2-azabicyclo[4.1.0]heptane-3-carboxamide]
- pIC50 [1]: 5.00 to 6.00
- IC50 (11 point curve): 2 µM

SMILES: Cc1ccnc(-c2cc(NC(=O)[C@@H]3CC3(F)F)ccc2C)c1 [Example 161, (1S)-2,2-difluoro-N-[4-methyl-3-(4-methylpyridin-2-yl)phenyl]cyclopropane-1-carboxamide]
- pIC50 [1]: 5.00 to 6.00
- IC50 (11 point curve): 3.5 µM

SMILES: Cc1cc(F)c(NC(=O)N2[C@@H]3C[C@@H](C)C[C@@]2(C(C)(C)O)C3)cc1-c1ncc(F)cn1 (racemic) [Example 183, cis-N-(2-fluoro-5-(5-fluoropyrimidin-2-yl)-4-methylphenyl)-1-(2-hydroxypropan-2-yl)-3-methyl-6-azabicyclo[3.1.1]heptane-6-carboxamide]
- IC50 (11 point curve): 0.06 µM
- pIC50 [2]: 6.00 to 10.00
